The numbers were not newly measured in patent publication US20210267908A1, “PHARMACEUTICAL COMPOSITIONS OF RIVAROXABAN” (MANKIND PHARMA LTD., priority 2020, published 2021), which cites them from elsewhere.

In the case of `O=C(NC[C@H]1CN(c2ccc(N3CCOCC3=O)cc2)C(=O)O1)c1ccc(Cl)s1` [Rivaroxaban, 5-Chloro-N-({(5S)-2-oxo-3-[4-(3-oxo-4-morpholinyl)phenyl]-1,3-oxazolidin-5-yl}methyl)-2-thiophenecarboxamide], for the setting “aqueous media at 25° C.”, the “amount pH-independently soluble in aqueous media” value is 5-7 mg/L. Also, the “solubility in organic solvents” value (organic solvents (e.g. acetone, polyethylene glycol 400)) is reported as “only slightly soluble”. The “solubility in water and aqueous media” value (water and aqueous media with pH 1-9) is “practically insoluble”.
